From patent EP0512684B1, “Synergistic herbicidal compositions” (DOWELANCO, priority 1991, dated 1992)

Tests used:
Format in all cases: in vivo
Bilderdykia convolvulus = experiment: Postemergent weed control, greenhouse (Example I)
Experimental: (§1) In all Examples, the percent kill and control is measured on a scale of 0 percent = no kill and control 100 percent = complete kill and control. Representative compositions of the present invention were evaluated to determine their effectiveness in synergistic postemergent weed control operations. Suspension emulsions containing varying concentrations of the methylheptyl ester of ((4-amino-3,5-dichloro-6-fluoro-2-pyridinyl)oxy)-acetic acid (Compound B) and N-(2,6-dichloro-3-methylphenyl)-5,7-dimethoxy-1,2,4,-triazolo(1,5a)pyrimidine-2-sulfonamide (Compound A), were prepared as follows: A 250 g per litre suspension concentrate of Compound A was prepared by wet-milling the following ingredients, until a particle size distribution with a volume median diameter of about 2μm was obtained. Varying amounts of the resulting suspension concentrate were added to water to provide the desired concentration of Compound A. Similarly, varying amounts of a commercially available emulsifiable concentrate containing 200 g/l (as acid equivalent) of fluroxypyr 1 methylheptyl ester (Trade Mark […]-2) were added, to provide the desired concentration of Compound B. In each of the tests which follow, the composition was applied at a rate of 200 litres per hectare. Accordingly, in each case, the amount of water to which the suspension concentrate of Compound A and the emulsifiable concentrate of Compound B was added was sufficient to provide the desired application rates, when the resulting composition was used at this application rate. Seeds of the weed species Bilderdykia convolvulus, Viola arvensis, Lamium purpureum, Chenopodium album and Fumaria officinalis, and seeds of the crop plant winter wheat variety Avalon, were planted in beds of good agricultural soil and grown in a greenhouse. […] The results are shown in Tables I to V. In the tables which follow, those runs which include only one but not both of Compound A and Compound B are included as controls. Expected control is calculated as 100 -((% control by Compound A) x (% control by Compound B))/(100) [formula] where % control= 100-actual control according to the technique described in Colby, "Calculating Synergistic and Antagonistic Responses of Herbicidal Combinations", Weeds, Volume 15 (1967), pages 20-22 and Colby, "Greenhouse Evaluation of Herbicidal Combinations", Proc. NEWCC, No. 19, pages 312-320. The percent increase over the expected control is calculated as (Actual control)/(Expected Control)x 100 - 100 [formula]

Chenopodium album = experiment: Postemergent weed control, greenhouse (Example I)
Experimental: as §1

Fumaria officinalis [1] = experiment: Postemergent weed control, greenhouse (Example I)
Experimental: as §1

Lamium purpureum [2] = experiment: Postemergent weed control, greenhouse (Example I)
Experimental: as §1

Viola arvensis [3] = experiment: Postemergent weed control, greenhouse (Example I)
Experimental: as §1

Fumaria officinalis [4] = experiment: Postemergent weed control, field trials (Example II)
Experimental: In all Examples, the percent kill and control is measured on a scale of 0 percent = no kill and control 100 percent = complete kill and control. Expected control is calculated as 100 -((% control by Compound A) x (% control by Compound B))/(100) [formula] where % control= 100-actual control according to the technique described in Colby, "Calculating Synergistic and Antagonistic Responses of Herbicidal Combinations", Weeds, Volume 15 (1967), pages 20-22 and Colby, "Greenhouse Evaluation of Herbicidal Combinations", Proc. NEWCC, No. 19, pages 312-320. The percent increase over the expected control is calculated as (Actual control)/(Expected Control)x 100 - 100 [formula] Table I A number of compositions in accordance with the present invention were prepared as in Example I and evaluated in field trials to determine their effectiveness in the postemergent control of the weed Fumaria officinalis growing in the presence of spring barley of the variety Triumph. Seeds of the plants spring barley of the variety Triumph and the weed specie Fumaria officinalis were planted in plots 6 meters x 3 meters composed of calcareous clay loam soil. Two months after planting, the plants were sprayed at a rate of 200 litre/hectare with one of the compositions having an active material control such as to give treatment rates shown in Table VI. […]

Galium aparine = experiment: Weed control, visual percent control (Example IV)
Experimental: (§2) In all Examples, the percent kill and control is measured on a scale of 0 percent = no kill and control 100 percent = complete kill and control. Expected control is calculated as 100 -((% control by Compound A) x (% control by Compound B))/(100) [formula] where % control= 100-actual control according to the technique described in Colby, "Calculating Synergistic and Antagonistic Responses of Herbicidal Combinations", Weeds, Volume 15 (1967), pages 20-22 and Colby, "Greenhouse Evaluation of Herbicidal Combinations", Proc. NEWCC, No. 19, pages 312-320. The percent increase over the expected control is calculated as (Actual control)/(Expected Control)x 100 - 100 [formula] Table I An emulsifiable concentrate of fluroxypyr methyl ester (as compound B) was prepared having the following composition. Varying amounts of this emulsifiable concentrate containing 100 g/l Fluroxypyr methyl ester (as acid equivalent) were added to a suspension concentrate of compound A prepared as in Example I, to provide the desired concentration of Compound B. The resulting formulation was tested against the following weeds, at the growth stage indicated, by the method described above. [table] In each case, the composition was applied ata rate of 200 litres per hectare. The percent of control was assessed by visual percent control (tables VIII to XII) and also by measurement of fresh weight (tables XIII to XVII).

Veronica persica = experiment: Weed control, visual percent control (Example IV)
Experimental: as §2

Viola arvensis [5] = experiment: Weed control, visual percent control (Example IV)
Experimental: as §2

Lamium purpureum [6] = experiment: Weed control by reduction in fresh weight (Example IV)
Experimental: as §2

Matricaria inodora = experiment: Post-emergent weed control by reduction in fresh weight (Examples V, VI and VII)
Experimental: (§3) In all Examples, the percent kill and control is measured on a scale of 0 percent = no kill and control 100 percent = complete kill and control. Expected control is calculated as 100 -((% control by Compound A) x (% control by Compound B))/(100) [formula] where % control= 100-actual control according to the technique described in Colby, "Calculating Synergistic and Antagonistic Responses of Herbicidal Combinations", Weeds, Volume 15 (1967), pages 20-22 and Colby, "Greenhouse Evaluation of Herbicidal Combinations", Proc. NEWCC, No. 19, pages 312-320. The percent increase over the expected control is calculated as (Actual control)/(Expected Control)x 100 - 100 [formula] Table I A 20% w/w suspension concentrate of fluroxypyr acid in water was prepared by wet milling the ingredients shown in Table XVIII until a particle size distribution with a volume median diameter of about 2µm was obtained. Varying amounts of the resulting suspension concentrate were added to water to provide the desired concentration of fluroxypyr acid. […] Varying amounts of the resulting solutions were further diluted with water to provide the desired concentration of the fluroxypyr salt. Similarly, varying amounts of the suspension concentrate of compound A prepared as in Example 1 were added, to provide the desired concentration of compound A. The formulations resulting from Examples V, VI and VII were evaluated to determine their effectiveness in the post-emergent control of the weeds Viola arvensis, Galium aparine, and Matricaria inodora.

Viola arvensis [7] = experiment: as above
Experimental: as §3

COc1cc(OC)n2nc(S(=O)(=O)Nc3c(Cl)ccc(C)c3Cl)nc2n1 [Cmpd A, N-(2,6-dichloro-3-methylphenyl)-5,7-dimethoxy-1,2,4,-triazolo(1,5a)pyrimidine-2-sulfonamide]
Actual Control (%) 32 days after treatment (Bilderdykia convolvulus; Cmpd A 6.25 g/ha alone): 0% | Actual Control (%) 32 days after treatment (Bilderdykia convolvulus; Cmpd A 12.50 g/ha alone): 45% | Actual Control (%) 32 days after treatment (Bilderdykia convolvulus; Cmpd A 25.00 g/ha alone): 30% | Actual Control (%) 32 days after treatment (Bilderdykia convolvulus; Cmpd A 50.00 g/ha alone): 53% | Actual Control 19 days after treatment (%) (Chenopodium album; Cmpd A 3.125 g/ha alone): 47% | Actual Control 19 days after treatment (%) (Chenopodium album; Cmpd A 6.25 g/ha alone): 60% | Actual Control 19 days after treatment (%) (Chenopodium album; Cmpd A 12.50 g/ha alone): 55% | Actual Control 19 days after treatment (%) (Chenopodium album; Cmpd A 25.00 g/ha alone): 60% | Actual Control 19 days after treatment (%) (Fumaria officinalis [1]; Cmpd A 3.125 g/ha alone): 5% | Actual Control 19 days after treatment (%) (Fumaria officinalis [1]; Cmpd A 6.25 g/ha alone): 18% | Actual Control 19 days after treatment (%) (Fumaria officinalis [1]; Cmpd A 12.50 g/ha alone): 0% | Actual Control 19 days after treatment (%) (Fumaria officinalis [1]; Cmpd A 25.00 g/ha alone): 18% | Actual Control (%) 12 days after treatment (Lamium purpureum [2]; Cmpd A 6.25 g/ha alone): 18% | Actual Control (%) 12 days after treatment (Lamium purpureum [2]; Cmpd A 12.50 g/ha alone): 24% | Actual Control (%) 12 days after treatment (Lamium purpureum [2]; Cmpd A 25.00 g/ha alone): 25% | Actual Control (%) 12 days after treatment (Lamium purpureum [2]; Cmpd A 50.00 g/ha alone): 23% | Actual Control (%) 17 days after treatment (Viola arvensis [3]; Cmpd A 6.25 g/ha alone): 15% | Actual Control (%) 17 days after treatment (Viola arvensis [3]; Cmpd A 12.50 g/ha alone): 36% | Actual Control (%) 17 days after treatment (Viola arvensis [3]; Cmpd A 25.00 g/ha alone): 39% | Actual Control (%) 17 days after treatment (Viola arvensis [3]; Cmpd A 50.00 g/ha alone): 50% | Actual Control 28 days after treatment (%) (Fumaria officinalis [4]; Cmpd A 10.0 g/ha alone): 0.0% | Actual Control 28 days after treatment (%) (Fumaria officinalis [4]; Cmpd A 20.0 g/ha alone): 15.0% | Actual Control (%) 19 days after treatment (Galium aparine; Cmpd A 3.125 g/ha alone): 0% | Actual Control (%) 19 days after treatment (Galium aparine; Cmpd A 6.25 g/ha alone): 0% | Actual Control (%) 19 days after treatment (Galium aparine; Cmpd A 12.5 g/ha alone): 0% | Actual Control (%) 19 days after treatment (Galium aparine; Cmpd A 25.0 g/ha alone): 0% | Actual Control (%) 19 days after treatment (Veronica persica; Cmpd A 3.125 g/ha alone): 10% | Actual Control (%) 19 days after treatment (Veronica persica; Cmpd A 6.25 g/ha alone): 20% | Actual Control (%) 19 days after treatment (Veronica persica; Cmpd A 12.5 g/ha alone): 28% | Actual Control (%) 19 days after treatment (Veronica persica; Cmpd A 25.0 g/ha alone): 30% | Actual Control (%) 19 days after treatment (Viola arvensis [5]; Cmpd A 3.125 g/ha alone): 22% | Actual Control (%) 19 days after treatment (Viola arvensis [5]; Cmpd A 6.25 g/ha alone): 12% | Actual Control (%) 19 days after treatment (Viola arvensis [5]; Cmpd A 12.5 g/ha alone): 55% | Actual Control (%) 19 days after treatment (Viola arvensis [5]; Cmpd A 25.0 g/ha alone): 72% | Actual Reduction (%) 19 days after treatment (Lamium purpureum [6]; Cmpd A 3.125 g/ha): 4% | Actual Reduction (%) 19 days after treatment (Lamium purpureum [6]; Cmpd A 6.25 g/ha): 0% | Actual Reduction (%) 19 days after treatment (Lamium purpureum [6]; Cmpd A 12.5 g/ha): 19% | Actual Reduction (%) 19 days after treatment (Lamium purpureum [6]; Cmpd A 25.0 g/ha): 11% | Actual Control (%) 17 days after treatment (Matricaria inodora; Cmpd A 6.25 g/ha): 7% | Actual Control (%) 17 days after treatment (Matricaria inodora; Cmpd A 12.50 g/ha): 32% | Actual Control (%) 17 days after treatment (Matricaria inodora; Cmpd A 25.00 g/ha): 75% | Actual Control (%) 17 days after treatment (Matricaria inodora; Cmpd A 50.00 g/ha): 72% | Actual Control (%) 23 days after treatment (Viola arvensis [7]; Cmpd A 6.25 g/ha): 20% | Actual Control (%) 23 days after treatment (Viola arvensis [7]; Cmpd A 6.25 g/ha, Table XX): 20% | Actual Control (%) 23 days after treatment (Viola arvensis [7]; Cmpd A 12.50 g/ha): 50% | Actual Control (%) 23 days after treatment (Viola arvensis [7]; Cmpd A 12.50 g/ha, Table XX): 50% | Actual Control (%) 23 days after treatment (Viola arvensis [7]; Cmpd A 25.00 g/ha): 52% | Actual Control (%) 23 days after treatment (Viola arvensis [7]; Cmpd A 25.00 g/ha, Table XX): 52% | Actual Control (%) 23 days after treatment (Viola arvensis [7]; Cmpd A 50.00 g/ha): 60% | Actual Control (%) 23 days after treatment (Viola arvensis [7]; Cmpd A 50.00 g/ha, Table XX): 60%
